IC50 data for 18 compounds are collected here from patent US8129417B2, “Substituted octahydrocyclopenta[C]pyrrol-4-amines as calcium channel blockers” (Abbott Laboratories, priority 2008, dated 2012).

pIC50: −log10 of the molar value.

human Cav2.2, sequence (Q00975 whole entry): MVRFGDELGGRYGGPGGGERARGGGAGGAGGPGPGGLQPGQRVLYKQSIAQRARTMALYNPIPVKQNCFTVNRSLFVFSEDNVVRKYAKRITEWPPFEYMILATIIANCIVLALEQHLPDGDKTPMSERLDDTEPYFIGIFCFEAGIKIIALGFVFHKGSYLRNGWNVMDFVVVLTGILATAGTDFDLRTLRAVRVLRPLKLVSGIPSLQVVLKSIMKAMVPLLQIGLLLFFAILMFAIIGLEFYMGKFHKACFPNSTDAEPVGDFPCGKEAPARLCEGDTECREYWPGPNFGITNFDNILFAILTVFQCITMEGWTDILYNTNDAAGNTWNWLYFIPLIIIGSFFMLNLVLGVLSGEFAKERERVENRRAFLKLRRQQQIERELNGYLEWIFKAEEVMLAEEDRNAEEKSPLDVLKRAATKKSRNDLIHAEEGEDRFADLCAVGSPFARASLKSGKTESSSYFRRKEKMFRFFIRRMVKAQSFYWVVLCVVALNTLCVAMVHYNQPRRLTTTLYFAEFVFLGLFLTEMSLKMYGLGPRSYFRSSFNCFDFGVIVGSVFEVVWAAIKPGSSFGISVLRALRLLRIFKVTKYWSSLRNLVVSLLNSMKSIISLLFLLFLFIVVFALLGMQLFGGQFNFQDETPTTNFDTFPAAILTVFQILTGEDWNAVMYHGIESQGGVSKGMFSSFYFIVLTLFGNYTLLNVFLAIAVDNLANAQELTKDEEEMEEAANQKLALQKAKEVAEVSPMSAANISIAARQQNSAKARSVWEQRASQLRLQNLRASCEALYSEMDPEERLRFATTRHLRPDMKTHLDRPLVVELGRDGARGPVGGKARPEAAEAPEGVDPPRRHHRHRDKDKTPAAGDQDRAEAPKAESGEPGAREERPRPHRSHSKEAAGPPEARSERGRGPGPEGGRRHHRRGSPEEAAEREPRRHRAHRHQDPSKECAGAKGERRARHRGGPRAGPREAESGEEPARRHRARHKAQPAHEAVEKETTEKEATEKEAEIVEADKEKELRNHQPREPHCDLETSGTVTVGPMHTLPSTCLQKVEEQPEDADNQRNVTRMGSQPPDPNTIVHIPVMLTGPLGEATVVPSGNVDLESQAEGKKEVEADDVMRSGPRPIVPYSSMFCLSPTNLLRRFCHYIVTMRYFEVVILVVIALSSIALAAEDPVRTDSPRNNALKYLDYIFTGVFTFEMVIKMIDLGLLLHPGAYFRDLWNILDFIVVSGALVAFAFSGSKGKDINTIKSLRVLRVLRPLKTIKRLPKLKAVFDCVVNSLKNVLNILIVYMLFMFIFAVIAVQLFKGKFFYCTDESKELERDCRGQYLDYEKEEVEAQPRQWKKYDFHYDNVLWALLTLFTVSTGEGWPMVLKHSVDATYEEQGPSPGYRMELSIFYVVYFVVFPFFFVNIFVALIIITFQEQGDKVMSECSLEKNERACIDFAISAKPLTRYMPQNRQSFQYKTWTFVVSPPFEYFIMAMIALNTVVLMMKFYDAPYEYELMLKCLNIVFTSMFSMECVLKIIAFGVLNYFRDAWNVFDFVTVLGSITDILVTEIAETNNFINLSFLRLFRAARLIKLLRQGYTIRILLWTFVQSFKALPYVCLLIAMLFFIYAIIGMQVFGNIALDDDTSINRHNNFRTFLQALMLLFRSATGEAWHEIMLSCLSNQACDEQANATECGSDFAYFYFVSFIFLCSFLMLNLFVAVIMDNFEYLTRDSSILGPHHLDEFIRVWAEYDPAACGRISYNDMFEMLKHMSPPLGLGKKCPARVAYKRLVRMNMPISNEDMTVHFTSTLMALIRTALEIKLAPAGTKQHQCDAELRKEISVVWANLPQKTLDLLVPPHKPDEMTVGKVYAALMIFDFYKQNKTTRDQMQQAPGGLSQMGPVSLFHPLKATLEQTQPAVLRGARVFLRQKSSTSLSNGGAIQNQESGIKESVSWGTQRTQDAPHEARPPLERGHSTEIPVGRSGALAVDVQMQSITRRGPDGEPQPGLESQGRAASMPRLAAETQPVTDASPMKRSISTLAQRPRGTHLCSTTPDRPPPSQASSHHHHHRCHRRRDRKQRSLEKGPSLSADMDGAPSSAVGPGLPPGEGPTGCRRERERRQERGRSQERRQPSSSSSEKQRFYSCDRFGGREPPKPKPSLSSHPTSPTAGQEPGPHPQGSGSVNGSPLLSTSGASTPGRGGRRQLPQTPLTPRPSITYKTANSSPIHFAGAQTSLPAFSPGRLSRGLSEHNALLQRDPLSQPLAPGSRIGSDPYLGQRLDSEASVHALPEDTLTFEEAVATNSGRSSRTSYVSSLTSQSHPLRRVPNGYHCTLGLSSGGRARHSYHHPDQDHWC
human Cav2.2, sequence (P54289 25-946 partner limits assumed): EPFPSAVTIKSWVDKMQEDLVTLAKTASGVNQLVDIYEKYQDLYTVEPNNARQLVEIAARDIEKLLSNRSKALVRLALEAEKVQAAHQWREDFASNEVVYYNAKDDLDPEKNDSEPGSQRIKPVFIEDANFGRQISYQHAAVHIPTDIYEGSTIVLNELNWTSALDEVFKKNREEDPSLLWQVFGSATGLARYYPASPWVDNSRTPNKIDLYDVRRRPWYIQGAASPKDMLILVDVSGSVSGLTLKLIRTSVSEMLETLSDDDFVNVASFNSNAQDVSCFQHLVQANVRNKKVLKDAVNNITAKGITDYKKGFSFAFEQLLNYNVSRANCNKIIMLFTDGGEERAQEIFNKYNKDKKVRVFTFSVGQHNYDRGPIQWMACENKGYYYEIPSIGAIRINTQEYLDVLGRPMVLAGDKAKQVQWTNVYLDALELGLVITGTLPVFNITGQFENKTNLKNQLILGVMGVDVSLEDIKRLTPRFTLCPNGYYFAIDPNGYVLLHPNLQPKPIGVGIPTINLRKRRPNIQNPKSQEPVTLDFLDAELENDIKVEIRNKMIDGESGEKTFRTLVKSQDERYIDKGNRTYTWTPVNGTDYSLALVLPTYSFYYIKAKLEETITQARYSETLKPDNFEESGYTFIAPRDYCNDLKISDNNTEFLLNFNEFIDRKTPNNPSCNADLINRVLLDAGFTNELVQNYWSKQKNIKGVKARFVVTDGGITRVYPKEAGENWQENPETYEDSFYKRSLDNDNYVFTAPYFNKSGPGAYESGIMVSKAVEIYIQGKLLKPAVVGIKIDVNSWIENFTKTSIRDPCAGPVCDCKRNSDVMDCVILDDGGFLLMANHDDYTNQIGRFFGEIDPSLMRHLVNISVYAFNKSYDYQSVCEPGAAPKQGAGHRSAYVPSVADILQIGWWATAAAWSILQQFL
human Cav2.2, sequence (P54289 947-1103 partner limits assumed): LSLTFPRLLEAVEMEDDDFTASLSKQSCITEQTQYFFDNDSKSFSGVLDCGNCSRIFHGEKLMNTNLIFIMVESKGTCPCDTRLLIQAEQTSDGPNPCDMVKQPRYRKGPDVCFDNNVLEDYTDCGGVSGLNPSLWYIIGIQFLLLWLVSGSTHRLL
human Cav2.2, sequence (P54284 whole entry partner): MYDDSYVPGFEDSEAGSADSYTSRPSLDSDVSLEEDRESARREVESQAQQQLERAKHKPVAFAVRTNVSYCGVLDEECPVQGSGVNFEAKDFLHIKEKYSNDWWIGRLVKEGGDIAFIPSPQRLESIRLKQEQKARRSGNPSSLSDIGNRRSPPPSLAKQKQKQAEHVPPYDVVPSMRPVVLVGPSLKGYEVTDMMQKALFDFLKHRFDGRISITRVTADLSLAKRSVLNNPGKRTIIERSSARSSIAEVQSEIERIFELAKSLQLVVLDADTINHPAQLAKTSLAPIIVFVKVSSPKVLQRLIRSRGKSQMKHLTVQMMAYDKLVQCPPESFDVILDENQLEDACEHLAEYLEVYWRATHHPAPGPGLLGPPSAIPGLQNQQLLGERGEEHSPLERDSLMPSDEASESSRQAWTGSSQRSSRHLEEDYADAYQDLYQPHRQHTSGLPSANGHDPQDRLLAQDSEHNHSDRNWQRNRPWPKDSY

The target in the experiment is human Cav2.2 (Homo sapiens, UniProt Q00975). The experiment is described as follows: Assessment of calcium channel activity using FLIPR (Ca2+ influx in IMR32 cells). Type of experiment: cell-based. The settings on record: 60 minute pre-incubation with compound, 2 μM nifedipine, depolarized with 80 mM KCl. In outline:
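IC50 came from sigmoidal non-linear regression of percent inhibition, relative to uninhibited activity, across compound concentrations. Calcium influx was measured by FLIPR in IMR32 cells plated at 1-1.2×10^5 cells/well and cultured 48 h at 37 °C.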
Broadly, the pIC50 is the IC50 on a negative log10 scale, so that one unit is a factor of ten. With `CN(C(=O)OC(C)(C)C)[C@@H](CC(C)(C)C)C(=O)N[C@@H]1CC[C@H]2CN(Cc3ccccc3)C[C@H]21` [Example 248, tert-butyl(S)-1-((3aS,4R,6aR)-2-benzyloctahydrocyclopenta[c]pyrrol-4-ylamino)-4,4-dimethyl-1-oxopentan-2-yl(methyl)carbamate], the pIC50 is 5.78.
Turning to `CC(C)C[C@H](NCC(C)(C)C)C(=O)N[C@H]1CC[C@@H]2CN(S(=O)(=O)c3cccc(C(F)(F)F)c3)C[C@@H]21` [Example 252, N^2-neopentyl-N^1-((3aR,4S,6aS)-2-{[3-(trifluoromethyl)phenyl]sulfonyl}octahydrocyclopenta[c]pyrrol-4-yl)-L-leucinamide], the pIC50 was 6.19.
`CCC[C@H](NCC(C)(C)C)C(=O)N[C@H]1CC[C@@H]2CN(S(=O)(=O)c3cccc(C(F)(F)F)c3)C[C@@H]21` [Example 253, N^2-neopentyl-N^1-((3aR,4S,6aS)-2-{[3-(trifluoromethyl)phenyl]sulfonyl}octahydrocyclopenta[c]pyrrol-4-yl)-L-norvalinamide]: the pIC50 was 6.44.
Take `CC(C)C[C@H](NCC(C)(C)C)C(=O)N[C@@H]1CC[C@H]2CN(S(=O)(=O)c3cccc(C(F)(F)F)c3)C[C@H]21` [Example 254, N^2-neopentyl-N^1-((3aS,4R,6aR)-2-{[3-(trifluoromethyl)phenyl]sulfonyl}octahydrocyclopenta[c]pyrrol-4-yl)-L-leucinamide]: the pIC50 was 6.14.
In the case of `CCC[C@H](NCC(C)(C)C)C(=O)N[C@@H]1CC[C@H]2CN(S(=O)(=O)c3cccc(C(F)(F)F)c3)C[C@H]21` [Example 255, N^2-neopentyl-N^1-((3aS,4R,6aR)-2-{[3-(trifluoromethyl)phenyl]sulfonyl}octahydrocyclopenta[c]pyrrol-4-yl)-L-norvalinamide], the pIC50 was 6.26.
The same measure for `CC(C)C[C@H](NCC(C)(C)C)C(=O)N[C@H]1CC[C@@H]2CN(S(=O)(=O)c3ccc(C(F)(F)F)cc3)C[C@@H]21` [Example 256, N^2-neopentyl-N^1-((3aR,4S,6aS)-2-{[4-(trifluoromethyl)phenyl]sulfonyl}octahydrocyclopenta[c]pyrrol-4-yl)-L-leucinamide]: 5.86; for `CN(C(=O)OC(C)(C)C)C(Cc1ccccc1)C(=O)NC1CCC2CN(S(=O)(=O)c3ccc(C(F)(F)F)cc3)CC21` [Example 258, N-(tert-butoxycarbonyl)-N-methyl-N-((3aR,4S,6aS)-2-{[4-(trifluoromethyl)phenyl]sulfonyl}octahydrocyclopenta[c]pyrrol-4-yl)-1-phenylalaninamide]: 6.07.
In the case of `CCC[C@@H](C(=O)N[C@H]1CC[C@@H]2CN(S(=O)(=O)c3ccc(C(F)(F)F)cc3)C[C@@H]21)N(C)C(=O)OC(C)(C)C` [Example 259, tert-butyl methyl((S)-1-oxo-1-((3aR,4S,6aS)-2-(4-(trifluoromethyl)phenylsulfonyl)octahydrocyclopenta[c]pyrrol-4-ylamino)pentan-2-yl)carbamate], the pIC50 was 5.94.
As for `CC(C)(C)C[C@H](NC(=O)OC(C)(C)C)C(=O)N[C@H]1CC[C@@H]2CN(c3ccc(C(F)(F)F)cn3)C[C@@H]21` [Example 262, tert-butyl(S)-4,4-dimethyl-1-oxo-1-((3aR,4S,6aS)-2-(5-(trifluoromethyl)pyridin-2-yl)octahydrocyclopenta[c]pyrrol-4-ylamino)pentan-2-ylcarbamate], the pIC50 was 5.74.
Take `CC(C)(C)C[C@H](NC(=O)OC(C)(C)C)C(=O)N[C@H]1CC[C@@H]2CN(c3cccc(C(F)(F)F)n3)C[C@@H]21` [Example 264, tert-butyl(S)-4,4-dimethyl-1-oxo-1-((3aR,4S,6aS)-2-(6-(trifluoromethyl)pyridin-2-yl)octahydrocyclopenta[c]pyrrol-4-ylamino)pentan-2-ylcarbamate]: the pIC50 was 6.55.
For `CC(C)(C)C[C@H](NC(=O)OC(C)(C)C)C(=O)N[C@H]1CC[C@@H]2CN(c3cnc(S(C)(=O)=O)nc3)C[C@@H]21` [Example 265, tert-butyl(S)-4,4-dimethyl-1-((3aR,4S,6aS)-2-(2-(methylsulfonyl)pyrimidin-5-yl)octahydrocyclopenta[c]pyrrol-4-ylamino)-1-oxopentan-2-ylcarbamate], the pIC50 was 5.58.
Consider `CC(C)(C)OC(=O)N1CCC[C@H]1C(=O)N[C@@H]1CC[C@H]2CN(S(=O)(=O)c3cccc(C(F)(F)F)c3)C[C@H]21` [Example 266, (S)-tert-butyl 2-((3aS,4R,6aR)-2-(3-(trifluoromethyl)phenylsulfonyl)octahydrocyclopenta[c]pyrrol-4-ylcarbamoyl)pyrrolidine-1-carboxylate], for which the pIC50 is 6.06.
In the case of `CC(C)(C)OC(=O)N1CCCC[C@H]1C(=O)N[C@@H]1CC[C@H]2CN(S(=O)(=O)c3cccc(C(F)(F)F)c3)C[C@H]21` [Example 268, tert-butyl(2S)-2-{[((3aS,4R,6aR)-2-{[3-(trifluoromethyl)phenyl]sulfonyl}octahydrocyclopenta[c]pyrrol-4-yl)amino]carbonyl}piperidine-1-carboxylate], the pIC50 is 6.14.
For the compound `CN(C(=O)OC(C)(C)C)C(Cc1ccccc1)C(=O)NC1CCC2CN(S(=O)(=O)c3cccc(C(F)(F)F)c3)CC21` [Example 270, N-(tert-butoxycarbonyl)-N-methyl-N-((3aR,4S,6aS)-2-{[3-(trifluoromethyl)phenyl]sulfonyl}octahydrocyclopenta[c]pyrrol-4-yl)-L-phenylalaninamide], the pIC50 is 6.11.
The same measure for `CC(C)(C)OC(=O)N1CCC[C@H]1C(=O)N[C@H]1CC[C@@H]2CN(S(=O)(=O)c3cccc(C(F)(F)F)c3)C[C@@H]21` [Example 271, (S)-tert-butyl 2-((3aR,4S,6aS)-2-(3-(trifluoromethyl)phenylsulfonyl)octahydrocyclopenta[c]pyrrol-4-ylcarbamoyl)pyrrolidine-1-carboxylate]: 5.47.
The same measure for `CC(C)[C@@H](CC(=O)N[C@H]1CC[C@@H]2CN(S(=O)(=O)c3cccc(C(F)(F)F)c3)C[C@@H]21)NC(=O)OC(C)(C)C` [Example 272, tert-butyl(1R)-1-isopropyl-3-oxo-[((3aR,4S,6aS)-2-{[3-(trifluoromethyl)phenyl]sulfonyl}octahydrocyclopenta[c]pyrrol-4-yl)amino]propylcarbamate]: 5.29; for `CC(C)[C@@H](C(=O)N[C@H]1CC[C@@H]2CN(S(=O)(=O)c3cccc(C(F)(F)F)c3)C[C@@H]21)N(C)C(=O)OC(C)(C)C` [Example 273, tert-butyl methyl((S)-3-methyl-1-oxo-1-((3aR,4S,6aS)-2-(3-(trifluoromethyl)phenylsulfonyl)octahydrocyclopenta[c]pyrrol-4-ylamino)butan-2-yl)carbamate]: 6.74.
As for `CC(C)(C)OC(=O)N1CCCC[C@H]1C(=O)N[C@H]1CC[C@@H]2CN(S(=O)(=O)c3cccc(C(F)(F)F)c3)C[C@@H]21` [Example 274, tert-butyl(2S)-2-{[((3aR,4S,6aS)-2-{[3-(trifluoromethyl)phenyl]sulfonyl}octahydrocyclopenta[c]pyrrol-4-yl)amino]carbonyl}piperidine-1-carboxylate], the figure is 5.86.
